The values that follow are results of earlier work, collected in patent publication US20240398886A1, “EFFECTIVE EYELID, FACE, HEAD AND BODY CLEANSER” (priority 2023, published 2024).

For data set [1] the following is noted: mammals; refs (12, 13).
The conditions of data set [2]: humans and warm-blooded vertebrates; refs (12, 13).

On to `C/C=C(\C)C(=O)O[C@H]1C[C@@H](OC(C)=O)[C@@]2(C(=O)OC)CO[C@H]3[C@@H](O)[C@@](C)([C@]45O[C@@]4(C)[C@H]4C[C@@H]5O[C@@H]5OC=C[C@@]54O)[C@H]4[C@]1(CO[C@]4(O)C(=O)OC)[C@@H]32` [Azadirachtin], for which the genotoxicity entry in data set [1] is “without genotoxicity”. Besides, the toxicity entry in data set [2] is “non-toxic”.
